Patent US9693556B2, “Herbicidal pyridazinone derivatives” (SYNGENTA LIMITED, priority 2011, dated 2017)

Columns and labels:
Assay type in all cases: in vivo
Setaria faberi (SETFA) [1] = experiment: Post-emergence herbicidal glasshouse test on Setaria faberi; details: post-emergence, 1000 g/h, evaluated after 13 days; for herbicidal damage, POST Application SETFA: five point scale
Method in brief: (§1)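 Plants sprayed 1 day (pre-emergence) or 8 days (post-emergence) after sowing with compound at 1000 g/h in acetone/water 50:50 with 0.5% Tween 20; glasshouse 24/16° C, 14 h light, 65% humidity. Damage assessed after 13 days, scored 1–5 (5 = 80-100%, 1 = 0-19%).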

Solanum nigrum (SOLNI) [2] = experiment: Post-emergence herbicidal glasshouse test on Solanum nigrum; details: post-emergence, 1000 g/h, evaluated after 13 days; for herbicidal damage, POST Application SOLNI: five point scale
Method in brief: as §1

[3] = test system: Ipomoea hederacea (IPOHE); experiment: Pre-emergence herbicidal glasshouse test on Ipomoea hederacea; details: pre-emergence, 1000 g/h, evaluated after 13 days; for herbicidal damage, PRE Application IPOHE: five point scale
Method in brief: as §1

[4] = test system: Alopecurus myosuroides (ALOMY); experiment: Post-emergence herbicidal glasshouse test on Alopecurus myosuroides; details: post-emergence, 1000 g/h, evaluated after 13 days; for herbicidal damage, POST Application ALOMY: five point scale
Method in brief: as §1

Solanum nigrum (SOLNI) [5] = experiment: Pre-emergence herbicidal glasshouse test on Solanum nigrum; details: pre-emergence, 1000 g/h, evaluated after 13 days; for herbicidal damage, PRE Application SOLNI: five point scale
Method in brief: as §1

[6] = test system: Echinochloa crus-galli (ECHCG); experiment: Post-emergence herbicidal glasshouse test on Echinochloa crus-galli; details: post-emergence, 1000 g/h, evaluated after 13 days; for herbicidal damage, POST Application ECHCG: five point scale
Method in brief: as §1

[7] = test system: Echinochloa crus-galli (ECHCG); experiment: Pre-emergence herbicidal glasshouse test on Echinochloa crus-galli; details: pre-emergence, 1000 g/h, evaluated after 13 days; for herbicidal damage, PRE Application ECHCG: five point scale
Method in brief: as §1

[8] = test system: Amaranthus retoflexus (AMARE); experiment: Pre-emergence herbicidal glasshouse test on Amaranthus retoflexus; details: pre-emergence, 1000 g/h, evaluated after 13 days; for herbicidal damage, PRE Application AMARE: five point scale
Method in brief: as §1

[9] = test system: Amaranthus retoflexus (AMARE); experiment: Post-emergence herbicidal glasshouse test on Amaranthus retoflexus; details: post-emergence, 1000 g/h, evaluated after 13 days; for herbicidal damage, POST Application AMARE: five point scale
Method in brief: as §1

[10] = test system: Ipomoea hederacea (IPOHE); experiment: Post-emergence herbicidal glasshouse test on Ipomoea hederacea; details: post-emergence, 1000 g/h, evaluated after 13 days; for herbicidal damage, POST Application IPOHE: five point scale
Method in brief: as §1

[11] = test system: Alopecurus myosuroides (ALOMY); experiment: Pre-emergence herbicidal glasshouse test on Alopecurus myosuroides; details: pre-emergence, 1000 g/h, evaluated after 13 days; for herbicidal damage, PRE Application ALOMY: five point scale
Method in brief: as §1

Setaria faberi (SETFA) [12] = experiment: Pre-emergence herbicidal glasshouse test on Setaria faberi; details: pre-emergence, 1000 g/h, evaluated after 13 days; for herbicidal damage, PRE Application SETFA: five point scale
Method in brief: as §1

| Structure (SMILES) | herbicidal damage, POST Application SETFA (Setaria faberi (SETFA) [1]) | herbicidal damage, POST Application SOLNI (Solanum nigrum (SOLNI) [2]) | herbicidal damage, PRE Application IPOHE [3] | herbicidal damage, POST Application ALOMY [4] | herbicidal damage, PRE Application SOLNI (Solanum nigrum (SOLNI) [5]) | herbicidal damage, POST Application ECHCG [6] | herbicidal damage, PRE Application ECHCG [7] | herbicidal damage, PRE Application AMARE [8] | POST Application SETFA herbicidal damage (five point scale) (Setaria faberi (SETFA) [1]) | POST Application SOLNI herbicidal damage (five point scale) (Solanum nigrum (SOLNI) [2]) | PRE Application IPOHE herbicidal damage (five point scale) [3] | POST Application ALOMY herbicidal damage (five point scale) [4] | PRE Application SOLNI herbicidal damage (five point scale) (Solanum nigrum (SOLNI) [5]) | POST Application ECHCG herbicidal damage (five point scale) [6] | PRE Application ECHCG herbicidal damage (five point scale) [7] | PRE Application AMARE herbicidal damage (five point scale) [8] | POST Application AMARE herbicidal damage (five point scale) [9] | POST Application IPOHE herbicidal damage (five point scale) [10] | PRE Application ALOMY herbicidal damage (five point scale) [11] | PRE Application SETFA herbicidal damage (five point scale) (Setaria faberi (SETFA) [12]) | further results |
| --- | --- | --- | --- | --- | --- | --- | --- | --- | --- | --- | --- | --- | --- | --- | --- | --- | --- | --- | --- | --- | --- |
| Cc1nc2nc(C(F)(F)F)c(-c3cnn(C)c(=O)c3O)cc2cc1F [Compound 1.151] | 5 (5=80-100% damage) | 5 (5=80-100% damage) | 5 (5=80-100% damage) | 5 (5=80-100% damage) | 4 (4=60-79% damage) | 5 (5=80-100% damage) | 5 (5=80-100% damage) | 5 (5=80-100% damage) |  |  |  |  |  |  |  |  |  |  |  |  | herbicidal damage, POST Application AMARE [9]: 5 (5=80-100% damage); herbicidal damage, POST Application IPOHE [10]: 5 (5=80-100% damage); herbicidal damage, PRE Application ALOMY [11]: 2 (2=20-39% damage); herbicidal damage, PRE Application SETFA (Setaria faberi (SETFA) [12]): 2 (2=20-39% damage) |
| Cn1ncc(-c2ccc(C(F)(F)F)cc2Cl)c(O)c1=O [Compound 1.076] |  |  |  |  |  |  |  |  | 1 (1=0-19% damage) | 4 (4=60-79% damage) | 1 (1=0-19% damage) | 2 (2=20-39% damage) | 2 (2=20-39% damage) | 2 (2=20-39% damage) | 1 (1=0-19% damage) | 5 (5=80-100% damage) | 5 (5=80-100% damage) | 4 (4=60-79% damage) | 1 (1=0-19% damage) | 1 (1=0-19% damage) |  |
| Cn1ncc(-n2ccc(C(F)(F)F)c(-c3ccccc3Cl)c2=O)c(O)c1=O [Compound 1.159] | 5 (5=80-100% damage) | 5 (5=80-100% damage) | 1 (1=0-19% damage) | 4 (4=60-79% damage) | 5 (5=80-100% damage) | 5 (5=80-100% damage) | 5 (5=80-100% damage) | 5 (5=80-100% damage) |  |  |  |  |  |  |  |  |  |  |  |  | herbicidal damage, POST Application AMARE [9]: 5 (5=80-100% damage); herbicidal damage, POST Application IPOHE [10]: 5 (5=80-100% damage); herbicidal damage, PRE Application ALOMY [11]: 5 (5=80-100% damage); herbicidal damage, PRE Application SETFA (Setaria faberi (SETFA) [12]): 5 (5=80-100% damage) |
| CCCn1ncc(-c2c(Cl)cccc2Cl)c(O)c1=O [Compound 1.129] |  |  |  |  |  |  |  |  | 2 (2=20-39% damage) | 3 (3=40-59% damage) | 1 (1=0-19% damage) | 1 (1=0-19% damage) | 1 (1=0-19% damage) | 2 (2=20-39% damage) | 1 (1=0-19% damage) | 1 (1=0-19% damage) | 3 (3=40-59% damage) | 2 (2=20-39% damage) | 1 (1=0-19% damage) | 1 (1=0-19% damage) |  |
| CC(C)n1ncc(-c2ccc(S(C)(=O)=O)c(C3=NOCC3)c2Cl)c(O)c1=O [Compound 1.014] |  |  |  |  |  |  |  |  | 5 (5=80-100% damage) | 5 (5=80-100% damage) | 2 (2=20-39% damage) | 5 (5=80-100% damage) | 5 (5=80-100% damage) | 5 (5=80-100% damage) | 5 (5=80-100% damage) | 5 (5=80-100% damage) | 5 (5=80-100% damage) | 5 (5=80-100% damage) | 5 (5=80-100% damage) | 5 (5=80-100% damage) |  |
